Like-named read-outs stand apart in the source and are kept apart here.
Legend:
[1] = test system: phosphorylation of EGFR (Tyr1068) in NCI-H1975 cell line that harbors the EGFR L858R T790M mutations; test: NCI-H1975 pEGFR AlphaLISA assay; format: cell-based; conditions: 4-5 hours incubation, read-out: Ext pEGFR H1975
How it was run: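 Phospho-EGFR Tyr1068 AlphaLISA readout: lysates taken from compound-treated H1975 cells (L858R T790M EGFR) after a 4-5 h exposure at 37 °C. Cells had adhered overnight beforehand. IC50 derived by plotting % pEGFR inhibition against log compound concentration.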

EGFR (L858R T790M C797S) = target: T1, EGFR (L858R T790M C797S) (Homo sapiens, UniProt P00533, C797S/L858R/T790M); test: Biochemical EGFR inhibition assay (Caliper mobility shift), EGFR LRTMCS mutant; conditions: inhibitory activity against EGFR LRTMCS mutant; apparent IC50; read-out: Ext Enz LRTMCS
T1 construct: purchased SignalChem E10-122VG
How it was run: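 Apparent IC50s were derived by plotting percent activity against the log of compound concentration. Activity was measured as phosphopeptide electrophoretically separated from substrate, after reactions at room temperature reached 10% to 20% phosphorylation and were halted with 35 mM EDTA.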

[2] = Homo sapiens, NCI-H1975, inhibition of phosphorylation of mutant EGFR in NCI-H1975 cells
[3] = inhibition of phosphorylation of mutant EGFR in NCI-H1975 cells

| Molecule | IC50 [1, 2] [nM] | IC50 (EGFR (L858R T790M C797S)) [nM] | IC50 [1, 3] [nM] |
| --- | --- | --- | --- |
| C[C@@H]1[C@@H](CS(C)(=O)=O)CN1c1cccc2cc(Nc3ccnc(N4C[C@H](F)[C@H](O)C(C)(C)C4)n3)ncc12 (single isomer, unassigned) [Compound 30, (4S,5R)-5-fluoro-1-[4-({8-[(2R,3S)-3-(methanesulfonylmethyl)-2-methylazetidin-1-yl]isoquinolin-3-yl}amino)pyrimidin-2-yl]-3,3-dimethylpiperidin-4-ol or (4R,5S)-5-fluoro-1-[4-({8-[(2R,3S)-3-(methanesulfonylmethyl)-2-methylazetidin-1-yl]isoquinolin-3-yl}amino)pyrimidin-2-yl]-3,3-dimethylpiperidin-4-ol] | ≤ 10 | ≤ 15 | – |
| CC(C)c1ccc(N2CC(CS(C)(=O)=O)C2)c2cnc(Nc3ccnc(N4C[C@@H](F)[C@@H](O)[C@](C)(F)C4)n3)cc12 (single isomer, unassigned) [Compound 156, (3R,4R,5R)-3,5-difluoro-1-[4-({8-[3-(methanesulfonylmethyl)azetidin-1-yl]-5-(propan-2-yl)isoquinolin-3-yl}amino)pyrimidin-2-yl]-3-methylpiperidin-4-ol or (3S,4S,5S)-3,5-difluoro-1-[4-({8-[3-(methanesulfonylmethyl)azetidin-1-yl]-5-(propan-2-yl)isoquinolin-3-yl}amino)pyrimidin-2-yl]-3-methylpiperidin-4-ol] | ≤ 10 | ≤ 15 | – |
| CC(C)c1cnc(N2C[C@H](CS(C)(=O)=O)[C@H]2C)c2cnc(Nc3ccnc(N4CC[C@@](C)(O)[C@@H](F)C4)n3)cc12 (single isomer, unassigned) [Compound 137] | ≤ 10 | ≤ 15 | – |
| CC(C)c1ccc(N2C[C@H](CS(C)(=O)=O)[C@H]2C)c2cnc(Nc3ccnc(N4CC[C@@H](OCCO)C(F)(F)C4)n3)cc12 (single isomer, unassigned) [Compound 251] | ≤ 10 | 15.1 to 20 | – |
| CO[C@H]1CCN(c2nccc(Nc3cc4c(C(C)C)ccc(N5C[C@H](CS(C)(=O)=O)[C@H]5C)c4cn3)n2)C[C@H]1C#N (single isomer, unassigned) [Compound 165, (3R,4R)-1-[4-({8-[(2R,3S)-3-(methanesulfonylmethyl)-2-methylazetidin-1-yl]-5-(propan-2-yl)isoquinolin-3-yl}amino)pyrimidin-2-yl-4-methoxypiperidine-3-carbonitrile or (3S,4S)-1-[4-({8-[(2R,3S)-3-(methanesulfonylmethyl)-2-methylazetidin-1-yl]-5-(propan-2-yl)isoquinolin-3-yl}amino)pyrimidin-2-yl]-4-methoxypiperidine-3-carbonitrile] | – | ≤ 15 | 20.1 to 30 |
| CC(C)c1cnc(N2CC(CS(C)(=O)=O)C2)c2cnc(Nc3ccnc(N4CCN(C)CC4)n3)cc12 [Compound 3, 8-[3-(methanesulfonylmethyl)azetidin-1-yl]-N-[2-(4-methylpiperazin-1-yl)pyrimidin-4-yl]-5-(propan-2-yl)-2,7-naphthyridin-3-amine] | 30.1 to 50 | 20.1 to 30 | – |
| [2H]C([2H])([2H])O[C@H]1CCN(c2nccc(Nc3cc4c(C5CC5)ccc(N5C[C@H](CS(C)(=O)=O)[C@H]5C)c4cn3)n2)C[C@H]1F [Compound 316, 5-cyclopropyl-N-(2-((3R,4S)-3-fluoro-4-(^2H3)piperidin-1-yl)pyrimidin-4-yl)-8-((2R,3S)-2-methyl-3-((methylsulfonyl)methyl)azetidin-1-yl)isoquinolin-3-amine] | ≤ 10 | ≤ 15 | – |
| (S)-ethyl({1-[3-({2-[(3S,4R)-3-fluoro-4-methoxypiperidin-1-yl]pyrimidin-4-yl}amino)-5-(propan-2-yl)isoquinolin-8-yl]azetidin-3-yl}methyl)imino-λ^6-sulfanone or (R)-ethyl({1-[3-({2-[(3S,4R)-3-fluoro-4-methoxypiperidin-1-yl]pyrimidin-4-yl}amino)-5-(propan-2-yl)isoquinolin-8-yl]azetidin-3-yl}methyl)imino-λ^6-sulfanone [Compound 273] | – | ≤ 15 | 20.1 to 30 |
| CC(C)c1ccc(N2CC(CS(C)(=O)=O)C2)c2cnc(Nc3ccnc(N4CC[C@H](OCCO)[C@H](F)C4)n3)cc12 [Compound 290, 2-{[(3R,4S)-3-fluoro-1-[4-({8-[3-(methanesulfonylmethyl)azetidin-1-yl]-5-(propan-2-yl)isoquinolin-3-yl}amino)pyrimidin-2-yl]piperidin-4-yl]oxy}ethan-1-ol] | ≤ 10 | ≤ 15 | – |
| CC(C)c1ccc(N2CC(CS(C)(=O)=O)C2)c2cnc(Nc3ccnc(N4CC[C@](C)(O)[C@H](F)C4)n3)cc12 (single isomer, unassigned) [Compound 57] | 10.1 to 20 | ≤ 15 | – |
| CC(C)c1ccc(N2C[C@H](CS(C)(=O)=O)[C@H]2C)c2cnc(Nc3ccnc(N4CC[C@](F)(CO)C4)n3)cc12 (single isomer, unassigned) [Compound 271, [(3S)-3-fluoro-1-[4-({8-[(2R,3S)-3-(methanesulfonylmethyl)-2-methylazetidin-1-yl]-5-(propan-2-yl)isoquinolin-3-yl}amino)pyrimidin-2-yl]pyrrolidin-3-yl]methanol or [(3R)-3-fluoro-1-[4-({8-[(2R,3S)-3-(methanesulfonylmethyl)-2-methylazetidin-1-yl]-5-(propan-2-yl)isoquinolin-3-yl}amino)pyrimidin-2-yl]pyrrolidin-3-yl]methanol] | – | ≤ 15 | ≤ 10 |
| CC(C)c1ccc(N2C[C@H](CS(C)(=O)=O)[C@H]2C)c2cnc(Nc3ccnc(N4CC[C@@H](OCCN)[C@@](C)(F)C4)n3)cc12 [Compound 241, N-{2-[(3S,4R)-4-(2-aminoethoxy)-3-fluoro-3-methylpiperidin-1-yl]pyrimidin-4-yl}-8-[(2R,3S)-3-(methanesulfonylmethyl)-2-methylazetidin-1-yl]-5-(propan-2-yl)isoquinolin-3-amine] | 10.1 to 20 | ≤ 15 | – |
| CO[C@@H]1[C@H](F)CN(c2nccc(Nc3cc4c(C(C)C)ccc(N5C[C@H](CS(C)(=O)=O)[C@H]5C)c4cn3)n2)C[C@@H]1O (racemic) [Compound 198, (3R,4R,5S)-5-fluoro-1-(4-((5-isopropyl-8-((2R,3S)-2-methyl-3-((methylsulfonyl)methyl)azetidin-1-yl)isoquinolin-3-yl)amino)pyrimidin-2-yl)-4-methoxypiperidin-3-ol and (3S,4S,5R)-5-fluoro-1-(4-((5-isopropyl-8-((2R,3S)-2-methyl-3-((methylsulfonyl)methyl)azetidin-1-yl)isoquinolin-3-yl)amino)pyrimidin-2-yl)-4-methoxypiperidin-3-ol] | ≤ 10 | 15.1 to 20 | – |
| CCS(=O)(=O)C[C@H]1CN(c2cnc(C(C)C)c3cc(Nc4ccnc(N5CC[C@@H](OCCO)[C@@H](F)C5)n4)ncc23)[C@@H]1C [Compound 298, 2-{[(3S,4R)-1-[4-({8-[(2R,3S)-3-[(ethanesulfonyl)methyl]-2-methylazetidin-1-yl]-5-(propan-2-yl)-2,6-naphthyridin-3-yl}amino)pyrimidin-2-yl]-3-fluoropiperidin-4-yl]oxy}ethan-1-ol] | ≤ 10 | ≤ 15 | – |
| CO[C@@H]1CCN(c2nccc(Nc3cc4c(C(C)C)ccc(N5CC(CS(C)(=O)=O)C5)c4cn3)n2)C[C@@H]1F [Compound 64, N-(2-((3S,4R)-3-fluoro-4-methoxypiperidin-1-yl)pyrimidin-4-yl)-5-isopropyl-8-(3-(methylsulfonylmethyl)azetidin-1-yl)isoquinolin-3-amine] | ≤ 10 | ≤ 15 | – |
